Data taken from patent US12344649B2, “Modulators of parathyroid hormone receptor (PTHR1)” (Flagship Pioneering Innovations VI, LLC, priority 2019, dated 2025).
“And” between values parts separate entries of the source, which are not always exact repeats. Identical values can stand only once. Where no end group is shown, it is not given here.

How the values were obtained:
Format in all cases: cell-based
[1] = target: T1, PTHR1 (Homo sapiens, UniProt Q03431); assay: β-arrestin2 recruitment BRET assay in transfected HEK293T cells; design: Flag (N); Life Technologies Corporation, CA (arrestin cDNA); host or cells: HEK293T (CRL-3216, ATCC); conditions: for −log10Slope / EC50: β-arrestin2 recruitment, replicate plates; for −log10Slope: fitted curve slope; for β-arrestin2 assay activity compared to control peptide: FIG. 2, PTH 1-34 positive control; for β2-arrestin: relative to PTH [1-34], HEK293T cells, BRET; for EC50: read-out: −log10EC50 (converted)
T1 sequence (Q03431 27-593): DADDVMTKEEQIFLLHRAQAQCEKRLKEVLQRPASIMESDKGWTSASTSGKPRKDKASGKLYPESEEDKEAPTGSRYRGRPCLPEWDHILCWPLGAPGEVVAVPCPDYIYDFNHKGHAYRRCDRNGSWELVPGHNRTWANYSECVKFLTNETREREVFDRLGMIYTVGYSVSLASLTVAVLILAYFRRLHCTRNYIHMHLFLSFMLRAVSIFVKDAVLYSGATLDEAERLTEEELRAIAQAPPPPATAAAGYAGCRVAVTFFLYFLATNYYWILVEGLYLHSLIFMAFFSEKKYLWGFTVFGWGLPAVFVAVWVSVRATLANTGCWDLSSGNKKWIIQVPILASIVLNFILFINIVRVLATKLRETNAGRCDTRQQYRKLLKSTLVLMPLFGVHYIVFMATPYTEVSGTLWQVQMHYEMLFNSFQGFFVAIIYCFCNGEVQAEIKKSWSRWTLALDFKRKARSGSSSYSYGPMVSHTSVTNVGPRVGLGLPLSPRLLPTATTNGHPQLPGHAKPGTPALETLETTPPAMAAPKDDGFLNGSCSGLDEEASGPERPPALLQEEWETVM
Experimental: (§1) 18-24 hours post transfection, the Luciferase substrate Coelenterazine (NanoLight Technologies, AZ) was added to cells, a baseline BRET measurement was taken after 5 minutes incubation, and then serial dilutions of peptides, diluted in PBS (with 0.5 mM MgCl2+0.1% BSA FAF), were added to cells, and BRET signal was measured every 2 minutes for 30 minutes on Hybrid Multi-Mode Reader (Synergy Neo2, BioTek, VT). Seventy-five peptides were tested in the β-arrestin recruitment assay.

[2] = target: T1, PTHR1; assay: cAMP accumulation assay (HTRF) in CHO-K1/Ga15/PTHR1 cells; design: host or cells: CHO-K1 (recombinant line CHO-K1/Ga15/PTHR1); conditions: for Emax: CHO-K1, cAMP assay, fitted dose-response maximum; for EC50: read-out: −log10EC50 (converted)
Experimental: Cell suspension (5 μL) was seeded in 384-well plates at a density of 3,000 cells/well. Cells were treated with test samples (5 μL) or agonist (PTH 1-34) for 30 minutes at room temperature. cAMP-d2 working solution (5 μL) and anti-cAMP-Cryptate working solution (5 μL) were added to cells and incubated for 60 minutes at room temperature. The signal of the assay plate was read with PheraStar (BMG LABTECH, NC), an HTRF compatible reader.

[3] = target: T1, PTHR1; assay: β-arrestin1 recruitment BRET assay in transfected HEK293T cells; design: Flag (N); Life Technologies Corporation, CA (arrestin cDNA); host or cells: HEK293T (CRL-3216, ATCC); conditions: for −log10Slope / EC50: β-arrestin1 recruitment, replicate plates; for −log10Slope: fitted curve slope; for EC50: read-out: −log10EC50 (converted)
Experimental: as §1

[4] = cAMP assay, fitted dose-response curve
[5] = cAMP assay, fitted dose-response slope
[6] = cAMP accumulation, fitted curve slope, replicate plates
[7] = cAMP accumulation, replicate plates

Sequence | −log10Slope [1] | Emax [2] [%] | EC50 [2, 4] [nM] | −log10Slope [2, 5] | β-arrestin1 recruitment compared to PTH 1-34 ([3]; FIG. 1, PTH 1-34 positive control) | β1-arrestin ([3]; relative to PTH [1-34], HEK293T cells, BRET) | −log10Slope [3] | EC50 [3] [nM] | cAMP accumulation activity compared to control peptide ([2]; FIG. 3, PTH 1-34 positive control) | cAMP ([2]; relative to PTH [1-34], CHO-K1/Ga15/PTHR1 cells) | β-arrestin2 assay activity compared to control peptide [1] | β2-arrestin [1] | EC50 [1] [nM] | −log10Slope [2, 6] | EC50 [2, 7] [nM]
GIAVITLMLLRAYLELLEELVKILHELLRRYH [Peptide R2-52] | −0.9875 | 97.4 | 2570 | −3.437 | higher levels of recruitment of β-arrestin 1 | ++ | 2.312 | 0.149 |  |  |  |  |  |  | 
GIAVITLMVLRALLELQEIGRKITLELLKEYI [Peptide R2-51] | −5.93 | 3.99 | 0.105 | 10.26 |  |  | −1.524 | 29400 | increased activity as compared to the control peptide | ++ |  |  |  |  | 
GVAELQLMHDLAKIRAEYELREMLLRLLEEIF [Peptide R2-1] | −1.954 |  |  |  |  |  | −0.1441 |  |  |  | increased activity as compared to control | ++ | 0.622 | −5.896 | 95.8
GVAMIQIMHDIAKIRAEYELREMLLRLLEEIF [Peptide R2-2] | 2.528 and −0.3398 |  |  |  |  |  | −1.586 and −3.87 |  |  |  |  |  |  | −3.889 | 187
GVAMLQIMHDLAKIKQELELKDSMKKILEDVL [Peptide R2-50] | −1.169 and 10.26 | 99.8 | 574 | −8.416 |  |  | −3.908 and −4.767 | 1200 |  |  | increased activity as compared to control | ++ | 0.0304 |  | 
SVMMIQVMHDLAKIRAEYELREMLLRLLEEIF [Peptide R2-8] | 4.445 |  |  |  |  |  | −2.339 | 3.7 |  |  | increased activity as compared to control | ++ | 0.349 | −24.9299 | 31.9
